# Results reported in patent US20130272963A1, “Cholesterol Efflux Assay Probe Formulations, Methods of Making and Using” (THE OHIO STATE UNIVERSITY, priority 2012, published 2013).
# Assay: Drug loading of CHEAP formulation
# Details: hydrophobic model drugs loaded into CHEAP
# Procedure: The intracellular delivery of hydrophobic drugs was conducted using a CHEAP formulation vehicle. Loading, as well as stability, of the drug-loaded CHEAP formulations was investigated on three different hydrophobic drugs. Rosiglitazone (RSG), Paclitaxel (PAX), and Tamoxifen (TAM) were used as model drugs for loading (FIG. 6A).
row,binding affinity towards the CHEAP formulation,Structure (SMILES)
1,high binding affinity,"CC(=O)O[C@H]1C(=O)[C@@]2(C)[C@H]([C@H](OC(=O)c3ccccc3)[C@]3(O)C[C@H](OC(=O)[C@H](O)[C@@H](NC(=O)c4ccccc4)c4ccccc4)C(C)=C1C3(C)C)[C@]1(OC(C)=O)CO[C@@H]1C[C@@H]2O [PAX, Paclitaxel]"
2,high binding affinity,"CC/C(=C(\c1ccccc1)c1ccc(OCCN(C)C)cc1)c1ccccc1 [TAM, Tamoxifen]"
